# Results published in PubChem BioAssay (NCI).
#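 Results reflect a 48-hour exposure of cells in 96-well plates to compound at five concentrations. TGI is the concentration that stops growth completely.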
# What was measured:
# Experiment in all cases: NCI anticancer screen, dose series, 48 h
# [1] = test system: 786-0 renal
# [2] = test system: A498 renal
# [3] = test system: A549 NSCLC
# [4] = test system: ACHN renal
# [5] = test system: CAKI-1 renal
# [6] = test system: CCRF-CEM leukemia
# [7] = test system: COLO 205 colon
# [8] = test system: DLD-1 colon
# [9] = test system: DMS 114 small cell lung
# [10] = test system: EKVX NSCLC
# [11] = test system: HCC-2998 colon
# [12] = test system: HCT-116 colon
# [13] = test system: HCT-15 colon
# [14] = test system: HL-60(TB) leukemia
# [15] = test system: HOP-18 NSCLC
# [16] = test system: HOP-62 NSCLC
# [17] = test system: HOP-92 NSCLC
# [18] = test system: HT29 colon
# [19] = test system: IGROV1 ovarian
# [20] = test system: K-562 leukemia
# [21] = test system: KM12 colon
# [22] = test system: KM20L2 colon
# [23] = test system: LOX IMVI melanoma
# [24] = test system: LXFL 529 NSCLC
# [25] = test system: M14 melanoma
# [26] = test system: M19-MEL melanoma
# [27] = test system: MALME-3M melanoma
# [28] = test system: MOLT-4 leukemia
# [29] = test system: NCI-H226 lung
# [30] = test system: NCI-H23 lung
# [31] = test system: NCI-H460 lung
# [32] = test system: OVCAR-3 ovarian
# [33] = test system: OVCAR-4 ovarian
# [34] = test system: OVCAR-5 ovarian
# [35] = test system: OVCAR-8 ovarian
# [36] = test system: RPMI-8226 leukemia
# [37] = test system: RXF 393 renal
# [38] = test system: SF-268 CNS
# [39] = test system: SF-295 CNS
# [40] = test system: SF-539 CNS
# [41] = test system: SK-MEL-28 melanoma
# [42] = test system: SK-MEL-5 melanoma
# [43] = test system: SK-OV-3 ovarian
# [44] = test system: SN12C renal
# [45] = test system: SNB-19 CNS
# [46] = test system: SNB-75 CNS
# [47] = test system: SNB-78 CNS
# [48] = test system: SR leukemia
# [49] = test system: SW-620 colon
# [50] = test system: TK-10 renal
# [51] = test system: U251 CNS
# [52] = test system: UACC-257 melanoma
# [53] = test system: UACC-62 melanoma
# [54] = test system: UO-31 renal
# [55] = test system: XF 498 CNS
# [56] = test system: DMS 273 small cell lung
# [57] = test system: NCI-H522 lung
# [58] = test system: SK-MEL-2 melanoma
smiles,measurement,setting,value
Cc1cc(O)c2c3c1C(=O)Oc1c(CO)c(O)c(C(=O)O)c(c1O3)C=NN=Cc1c3c(c(CO)c(O)c1C(=O)O)OC(=O)c1c(C)cc(O)c(c1O3)C=NN=C2,TGI,[1],> 100 µM
same,TGI,[2],> 100 µM
same,TGI,[3],> 100 µM
same,TGI,[4],> 100 µM
same,TGI,[5],> 100 µM
same,TGI,[6],> 1 µM
same,TGI,[7],> 100 µM
same,TGI,[8],> 100 µM
same,TGI,[9],> 100 µM
same,TGI,[10],> 100 µM
same,TGI,[11],> 100 µM
same,TGI,[12],> 100 µM
same,TGI,[13],> 100 µM
same,TGI,[14],> 1 µM
same,TGI,[15],> 100 µM
same,TGI,[16],> 100 µM
same,TGI,[17],> 100 µM
same,TGI,[18],> 100 µM
same,TGI,[19],> 100 µM
same,TGI,[20],> 1 µM
same,TGI,[21],> 100 µM
same,TGI,[22],> 100 µM
same,TGI,[23],> 100 µM
same,TGI,[24],> 100 µM
same,TGI,[25],> 100 µM
same,TGI,[26],> 100 µM
same,TGI,[27],> 100 µM
same,TGI,[28],> 1 µM
same,TGI,[29],> 100 µM
same,TGI,[30],> 100 µM
same,TGI,[31],> 100 µM
same,TGI,[32],88.1 µM
same,TGI,[33],> 100 µM
same,TGI,[34],> 100 µM
same,TGI,[35],> 100 µM
same,TGI,[36],> 1 µM
same,TGI,[37],> 100 µM
same,TGI,[38],> 100 µM
same,TGI,[39],> 100 µM
same,TGI,[40],> 100 µM
same,TGI,[41],> 100 µM
same,TGI,[42],> 100 µM
same,TGI,[43],> 100 µM
same,TGI,[44],> 100 µM
same,TGI,[45],> 100 µM
same,TGI,[46],> 100 µM
same,TGI,[47],> 100 µM
same,TGI,[48],> 1 µM
same,TGI,[49],> 100 µM
same,TGI,[50],> 100 µM
same,TGI,[51],> 100 µM
same,TGI,[52],> 100 µM
same,TGI,[53],> 100 µM
same,TGI,[54],> 100 µM
same,TGI,[55],> 100 µM
NC(=O)C1(c2ccccc2)Nc2ccccc2S1 (stereo not given),TGI,[3],> 100 µM
same,TGI,[4],> 100 µM
same,TGI,[5],> 100 µM
same,TGI,[6],> 100 µM
same,TGI,[7],> 100 µM
same,TGI,[8],> 100 µM
same,TGI,[9],> 100 µM
same,TGI,[56],> 100 µM
same,TGI,[10],> 100 µM
same,TGI,[11],> 100 µM
same,TGI,[12],> 100 µM
same,TGI,[13],> 100 µM
same,TGI,[14],> 100 µM
same,TGI,[15],> 100 µM
same,TGI,[16],> 100 µM
same,TGI,[18],> 100 µM
same,TGI,[20],> 100 µM
same,TGI,[21],> 100 µM
same,TGI,[22],> 100 µM
same,TGI,[23],> 100 µM
same,TGI,[24],> 100 µM
same,TGI,[25],> 100 µM
same,TGI,[26],> 100 µM
same,TGI,[27],> 100 µM
same,TGI,[28],> 100 µM
same,TGI,[29],> 100 µM
same,TGI,[30],> 100 µM
same,TGI,[31],> 100 µM
same,TGI,[57],> 100 µM
same,TGI,[32],> 100 µM
same,TGI,[34],> 100 µM
same,TGI,[35],> 100 µM
same,TGI,[36],> 100 µM
same,TGI,[37],> 100 µM
same,TGI,[38],> 100 µM
same,TGI,[40],> 100 µM
same,TGI,[58],> 100 µM
same,TGI,[41],> 100 µM
same,TGI,[42],> 100 µM
same,TGI,[43],> 100 µM
same,TGI,[44],> 100 µM
same,TGI,[45],> 100 µM
same,TGI,[48],> 100 µM
same,TGI,[49],> 100 µM
same,TGI,[50],> 100 µM
same,TGI,[51],> 100 µM
same,TGI,[53],> 100 µM
same,TGI,[54],> 100 µM
same,TGI,[55],> 100 µM
COc1ccc2cc3[n+](cc2c1O)CCc1cc2c(cc1-3)OCO2,TGI,[1],> 100 µM
same,TGI,[2],> 100 µM
same,TGI,[3],> 100 µM
same,TGI,[4],> 100 µM
same,TGI,[6],> 100 µM
same,TGI,[7],> 100 µM
same,TGI,[8],> 100 µM
same,TGI,[10],> 100 µM
same,TGI,[11],> 100 µM
same,TGI,[12],> 100 µM
same,TGI,[13],> 100 µM
same,TGI,[14],> 100 µM
same,TGI,[15],> 100 µM
same,TGI,[16],> 100 µM
same,TGI,[18],> 100 µM
same,TGI,[19],> 100 µM
same,TGI,[20],> 100 µM
same,TGI,[21],> 100 µM
same,TGI,[22],> 100 µM
same,TGI,[23],> 100 µM
same,TGI,[25],> 100 µM
same,TGI,[26],> 100 µM
same,TGI,[27],> 100 µM
same,TGI,[28],> 100 µM
same,TGI,[29],> 100 µM
same,TGI,[30],> 100 µM
same,TGI,[31],> 100 µM
same,TGI,[57],> 100 µM
same,TGI,[32],> 100 µM
same,TGI,[33],> 100 µM
same,TGI,[34],> 100 µM
same,TGI,[35],> 100 µM
same,TGI,[36],> 100 µM
same,TGI,[37],> 100 µM
same,TGI,[38],> 100 µM
same,TGI,[39],> 100 µM
same,TGI,[40],> 100 µM
same,TGI,[58],> 100 µM
same,TGI,[41],> 100 µM
same,TGI,[43],> 100 µM
same,TGI,[44],> 100 µM
same,TGI,[45],> 100 µM
same,TGI,[46],> 100 µM
same,TGI,[47],> 100 µM
same,TGI,[49],> 100 µM
same,TGI,[50],> 100 µM
same,TGI,[51],> 100 µM
same,TGI,[52],> 100 µM
same,TGI,[53],> 100 µM
same,TGI,[54],> 100 µM
same,TGI,[55],> 100 µM
